From PubChem BioAssay (NCI) come the findings set out here.

Structures are written as SMILES.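 The compound was tested at five concentrations on cells cultured in 96-well plates, with a 48-hour exposure period. At the TGI there is no net growth.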

Test systems include A549 NSCLC; ACHN renal; BT-549 breast; COLO 205 colon; EKVX NSCLC; HCT-15 colon; HOP-62 NSCLC; IGROV1 ovarian; MALME-3M melanoma; MDA-MB-435; MDA-N; NCI-H460 lung; NCI-H522 lung; OVCAR-3 ovarian; OVCAR-8 ovarian; SK-MEL-5 melanoma; SNB-19 CNS; SW-620 colon; TK-10 renal; HOP-92 NSCLC.
What all share (assay): growth of human tumour cells (NCI), 48 h

Consider `COC(=O)c1c2c(cc3c1CC1(Cc4cc5c(cc4C1=O)CCC5)C3)CCC2` (stereo not given), for which the TGI in the test with A549 NSCLC, with ACHN renal, with BT-549 breast, in the test on COLO 205 colon, in the test with EKVX NSCLC and with HCT-15 colon was above 100 µM in each case. The TGI in the test on HOP-62 NSCLC, in the test on IGROV1 ovarian, in the test with MALME-3M melanoma, in the test with MDA-MB-435, in the test on MDA-N and in the test with NCI-H460 lung was above 100 µM throughout. The TGI with NCI-H522 lung is above 100 µM; in the test on OVCAR-3 ovarian, above 100 µM; in the test with OVCAR-8 ovarian, above 100 µM; in the test on SK-MEL-5 melanoma it was 54.4 µM; in the test with SNB-19 CNS it was above 100 µM; in the test on SW-620 colon, above 100 µM. The compound also registered a TGI in the test on TK-10 renal above 100 µM.

`CN1CC[C@]2(c3cccc(O)c3)CC(=O)/C(=C/c3ccc(Cl)c(Cl)c3)[C@@H]1C2`: the TGI in the test on A549 NSCLC was determined as 3.36 µM; in the test on ACHN renal it was 2.38 µM; in the test with BT-549 breast it was 3.14 µM; in the test with COLO 205 colon it was 2.96 µM; in the test on EKVX NSCLC, 3.03 µM; with HCT-15 colon it was 2.52 µM. In addition, the TGI in the test on HOP-92 NSCLC turned out to be 2.57 µM; in the test on IGROV1 ovarian, 3.72 µM; in the test on MALME-3M melanoma, 2.85 µM; with MDA-MB-435 it was 1.4 µM; with MDA-N, 1.83 µM; in the test with NCI-H460 lung it was 3.39 µM. The TGI was found to be 4.35 µM in the test on OVCAR-8 ovarian; 3.1 µM in the test on SK-MEL-5 melanoma; 3.48 µM in the test with SNB-19 CNS; 2.41 µM in the test with SW-620 colon; 3.48 µM in the test with TK-10 renal.

As to `CC(=O)N1CC(=O)N2C(=O)/C(=C/c3ccc(Cl)cc3)N=C12`, the TGI in the test on A549 NSCLC, in the test with ACHN renal, with BT-549 breast, in the test on COLO 205 colon, in the test on EKVX NSCLC and in the test on HCT-15 colon was above 100 µM throughout. Also, the TGI with HOP-62 NSCLC, in the test with HOP-92 NSCLC, in the test with MALME-3M melanoma, in the test with MDA-MB-435, in the test with MDA-N and with NCI-H460 lung was above 100 µM in each case. Further, the TGI in the test on OVCAR-3 ovarian, in the test on OVCAR-8 ovarian, in the test with SK-MEL-5 melanoma, in the test with SNB-19 CNS, with SW-620 colon and with TK-10 renal was above 100 µM each time.

As to `Cc1ccc(-c2nc(-c3cnccn3)n(C3OC(CO)C(O)C(O)C3O)n2)cc1` (stereo not given), the TGI with A549 NSCLC, in the test on BT-549 breast, with COLO 205 colon, with EKVX NSCLC, with HCT-15 colon and with HOP-62 NSCLC was above 100 µM throughout. Besides, the TGI in the test with HOP-92 NSCLC, in the test with IGROV1 ovarian, in the test on MDA-MB-435, with MDA-N, with NCI-H460 lung and in the test on NCI-H522 lung was above 100 µM throughout. The TGI in the test with OVCAR-3 ovarian, with OVCAR-8 ovarian, in the test on SK-MEL-5 melanoma, with SNB-19 CNS, in the test with SW-620 colon and with TK-10 renal was above 100 µM each time.

Turning to `COc1cccc(Cc2cc(=O)c3ccc(C)nc3[nH]2)c1`, the TGI in the test with A549 NSCLC, in the test on BT-549 breast, in the test on COLO 205 colon, with EKVX NSCLC, with HCT-15 colon and with HOP-62 NSCLC was above 100 µM in each case. The TGI with HOP-92 NSCLC, in the test on IGROV1 ovarian, with MALME-3M melanoma, in the test with MDA-MB-435, in the test with MDA-N and in the test on NCI-H460 lung was above 100 µM throughout. Further, the TGI with NCI-H522 lung is 65 µM; in the test on OVCAR-3 ovarian it was above 100 µM; with OVCAR-8 ovarian it was above 100 µM; in the test on SK-MEL-5 melanoma it was above 100 µM; in the test on SNB-19 CNS, above 100 µM; in the test on SW-620 colon, above 100 µM. The TGI in the test with TK-10 renal was above 100 µM.

For `O=c1[nH]cnc2c1ncn2[C@@H]1C[C@H]1CO`, the TGI in the test on A549 NSCLC, in the test with ACHN renal, in the test with BT-549 breast, with COLO 205 colon, in the test with EKVX NSCLC and with HCT-15 colon was above 100 µM in each case. The TGI with HOP-62 NSCLC, with HOP-92 NSCLC, in the test with IGROV1 ovarian, in the test with MALME-3M melanoma, with MDA-MB-435 and with MDA-N was above 100 µM each time. In addition, the TGI in the test with NCI-H460 lung, with NCI-H522 lung, with OVCAR-8 ovarian, with SK-MEL-5 melanoma, in the test on SNB-19 CNS and with SW-620 colon was above 100 µM throughout. Moreover, the TGI with TK-10 renal was above 100 µM.

For the compound `O=c1[nH]c(-n2[nH]c3c(c2=O)CCCC3)nc(O)c1-c1ccccc1`, the TGI in the test with ACHN renal, with BT-549 breast, in the test with COLO 205 colon, in the test on EKVX NSCLC, in the test on HCT-15 colon and in the test on HOP-92 NSCLC was above 100 µM in each case. For the same compound, the TGI in the test on IGROV1 ovarian, in the test with MALME-3M melanoma, with MDA-MB-435, with MDA-N, with NCI-H460 lung and in the test on NCI-H522 lung was above 100 µM in each case. Moreover, the TGI in the test with OVCAR-8 ovarian, with SK-MEL-5 melanoma, with SNB-19 CNS, with SW-620 colon and in the test on TK-10 renal was above 100 µM throughout.

Consider `CNc1nnc(CNc2ccc(-c3nnc(NC)n3N)cc2)n1N`, for which the TGI with A549 NSCLC, in the test with ACHN renal, in the test with BT-549 breast, in the test with COLO 205 colon, in the test with EKVX NSCLC and in the test with HCT-15 colon was above 100 µM throughout. In addition, the TGI in the test on HOP-62 NSCLC, in the test with HOP-92 NSCLC, in the test with IGROV1 ovarian, in the test on MDA-MB-435, in the test on MDA-N and with NCI-H460 lung was above 100 µM throughout. For the same compound, the TGI in the test with OVCAR-3 ovarian, with OVCAR-8 ovarian, with SK-MEL-5 melanoma, with SNB-19 CNS, in the test on SW-620 colon and in the test on TK-10 renal was above 100 µM in each case.
